Experimental data from patent publication US7973033B2, “Multi-cyclic cinnamide derivatives” (Eisai R&D Management Co., Ltd., priority 2006, dated 2011).

What follows are compounds tested on Aβ 42 production (assay: Quantification of Aβ Peptide in Culture of Neurons from Rat Fetus Brain). Conditions: Neuron, 72 h; rat primary neuronal culture (cerebral cortex, embryonic day 18 Wistar rats); medium collected three days after addition of the compound; Aβ ELISA; read-out: Effect of reducing Aβ 42 production IC50.
Assay type: cell-based
Method: Quantification of Aβ Peptide in Culture of Neurons from Rat Fetus Brain
(1) Rat Primary Neuronal Culture
Primary neuronal cultures were prepared from the cerebral cortex of embryonic day 18 Wistar rats (Charles River Japan, Yokohama, Japan). Specifically, the embryos were aseptically removed from pregnant rats under ether anesthesia. The brain was isolated from the embryo and immersed in an ice-cold L-15 medium (Invitrogen Corp. Cat #11415-064, Carlsbad, Calif., USA, or SIGMA L1518, for example). The cerebral cortex was collected from the isolated brain under a stereoscopic microscope. The cerebral cortex fragments collected were enzymatically treated in an enzyme solution containing 0.25% trypsin (Invitrogen Corp. Cat #15050-065, Carlsbad, Calif., USA) and 0.01% DNase (Sigma D5025, St. Louis, Mo., USA) at 37° C. for 30 minutes to disperse the cells. Here, the enzymatic reaction was stopped by adding inactivated horse serum to the solution. The enzymatically treated solution was centrifuged at 1,500 rpm for five minutes to remove the supernatant. 5 to 10 ml of a medium was added to the resulting cell mass. Neurobasal medium (Invitrogen Corp. Cat #21103-049, Carlsbad, Calif., USA) supplemented with 2% B27 supplement (Invitrogen Corp. Cat #17504-044, Carlsbad, Calif., USA), 25 μM 2-mercaptoethanol (2-ME, WAKO Cat #139-06861, Osaka, Japan), 0.5 mM L-glutamine (Invitrogen Corp. Cat #25030-081, Carlsbad, Calif., USA), and Antibiotics-Antimycotics (Invitrogen Corp. Cat #15240-062, Carlsbad, Calif., USA) was used as the medium (Neurobasal/B27/2-ME). However, the above Neurobasal medium not supplemented with 2-ME (Neurobasal/B27) was used for the assay. The cells were redispersed by mild pipetting of the cell mass to which the medium was added. The cell dispersion was filtered through a 40-μm nylon mesh (Cell Strainer, Cat #35-2340, Becton Dickinson Labware, Franklin Lakes, N.J., USA) to remove the remaining cell mass, and thus a neuronal cell suspension was obtained. The neuronal cell suspension was diluted with the medium and then plated in a volume of 100 μl/well at an initial cell density of 5×10^5 cells/cm^2 in a 96-well polystyrene culture plate pre-coated with poly-L or D-lysine (Falcon Cat #35-3075, Becton Dickinson Labware, Franklin Lakes, N.J., USA coated with poly-L-lysine using the method shown below, or BIOCOAT™ cell environments Poly-D-lysine cell ware 96-well plate, Cat #35-6461, Becton Dickinson Labware, Franklin Lakes, N.J., USA). Poly-L-lysine coating was carried out as follows. 100 μg/ml of a poly-L-lysine (SIGMA P2636, St. Louis, Mo., USA) solution was aseptically prepared with a 0.15 M borate buffer (pH 8.5). 100 μl/well of the solution was added to the 96-well polystyrene culture plate and incubated at room temperature for one or more hours or at 4° C. overnight or longer. The coated 96-well polystyrene culture plate was washed with sterile water four or more times, and then dried or rinsed with, for example, sterile PBS or medium, and used for cell plating. The plated cells were cultured in the culture plate at 37° C. in 5% CO2-95% air for one day. Then, the total amount of the medium was replaced with a fresh Neurobasal™/B27/2-ME medium, and then the cells were cultured for further three days.
The drug was added to the culture plate on Day 4 of culture as follows. The total amount of the medium was removed from the wells, and 180 μl/well of Neurobasal medium not containing 2-ME and containing 2% B-27 (Neurobasal/B27) was added thereto. A solution of the test compound in dimethyl sulfoxide (hereinafter abbreviated as DMSO) was diluted with Neurobasal/B27 at 10-fold of the final concentration. 20 μl/well of the dilution was added to and sufficiently mixed with the medium. The final DMSO concentration was 1% or less. Only DMSO was added to the control group.
The cells were cultured for three days after addition of the compound, and the total amount of the medium was collected. […]

| SMILES | IC50 |
| --- | --- |
| COc1cc(/C=C/c2nc3n(n2)CCCC3(O)c2ccc(Cl)cc2)ccc1-n1cnc(C)c1 (single isomer, unassigned) [Example 153, (−)-8-(4-chlorophenyl)-2-{(E)-2-[3-methoxy-4-(4-methyl-1H-imidazol-1-yl)phenyl]vinyl}-5,6,7,8-tetrahydro[1,2,4]triazolo[1,5-a]pyridin-8-ol] | 31 nM |
| COc1cc(/C=C/c2nc(C(C)c3ccccc3)n(C)n2)ccc1-n1cnc(C)c1 (stereo not drawn) [Example 45, 3-{(E)-2-[3-methoxy-4-(4-methyl-1H-imidazol-1-yl)phenyl]vinyl}-1-methyl-5-(1-phenylethyl)-1H-[1,2,4]triazole] | 85 nM |
| COc1cc(/C=C/c2nc3n(n2)CCC[C@@H]3c2c(F)cc(F)cc2F)ccc1-n1cnc(C)c1 (single isomer, unassigned) [Example 64, (−)-2-{(E)-2-[3-methoxy-4-(4-methyl-1H-imidazol-1-yl)phenyl]vinyl}-8-(2,4,6-trifluorophenyl)-5,6,7,8-tetrahydro[1,2,4]triazolo[1,5-a]pyridine] | 28 nM |
| COc1cc(/C=C/c2nc3n(n2)CCC[C@@H]3c2cc(F)c(F)c(F)c2)c(F)cc1-n1cnc(C)c1 (single isomer, unassigned) [Example 69, (−)-2-{(E)-2-[2-fluoro-5-methoxy-4-(4-methyl-1H-imidazol-1-yl)phenyl]vinyl}-8-(3,4,5-trifluorophenyl)-5,6,7,8-tetrahydro[1,2,4]triazolo[1,5-a]pyridine] | 74 nM |
| COc1cc(/C=C/c2nc3n(n2)CCC[C@H]3c2ccccc2Br)ccc1-n1cnc(C)c1 (single isomer, unassigned) [Example 174, (−)-8-(2-bromophenyl)-2-{(E)-2-[3-methoxy-4-(4-methyl-1H-imidazol-1-yl)phenyl]vinyl}-5,6,7,8-tetrahydro[1,2,4]triazolo[1,5-a]pyridine] | 23 nM |
| COc1cc(/C=C/c2nnc(C(C)c3ccc(F)cc3)[nH]2)ccc1-n1cnc(C)c1 (single isomer, unassigned) [Example 36, (+)-3-[1-(4-fluorophenyl)ethyl]-5-{(E)-2-[3-methoxy-4-(4-methyl-1H-imidazol-1-yl)phenyl]vinyl}-4H-[1,2,4]triazole] | 34 nM |
| COC(=O)c1[nH]c(/C=C/c2ccc(-n3cnc(C)c3)c(OC)c2)nc1-c1ccc(F)cc1 [Example 6, methyl 5-(4-fluorophenyl)-2-{(E)-2-[3-methoxy-4-(4-methyl-1H-imidazol-1-yl)phenyl]vinyl}-1H-imidazole-4-carboxylate] | 60 nM |
| COc1cc(/C=C2\CCCn3c2nc(CO)c3-c2ccc(F)cc2)ccc1-n1cnc(C)c1 [Example 23, {3-(4-fluorophenyl)-8-{1-[3-methoxy-4-(4-methyl-1H-imidazol-1-yl)phenyl]-(E)-methylidene}-5,6,7,8-tetrahydroimidazo[1,2-a]pyridin-2-yl}methanol] | 60 nM |
| COc1cc(/C=C/c2nc3n(n2)CCO[C@H]3c2ccc(C)cc2)ccc1-n1cnc(C)c1 (single isomer, unassigned) [Example 138, (−)-2-{(E)-2-[3-methoxy-4-(4-methyl-1H-imidazol-1-yl)phenyl]vinyl}-8-p-tolyl-5,6-dihydro-8H-[1,2,4]triazolo[5,1-c][1,4]oxazine] | 47 nM |
| COc1cc(/C=C/c2nc3n(n2)CCC[C@@]3(O)c2cccc3ccccc23)ccc1-n1cnc(C)c1 (single isomer, unassigned) [Example 136, (−)-2-{(E)-2-[3-methoxy-4-(4-methyl-1H-imidazol-1-yl)phenyl]vinyl}-8-naphthalen-1-yl-5,6,7,8-tetrahydro[1,2,4]triazolo[1,5-a]pyridin-8-ol] | 24 nM |
| COc1cc(/C=C/c2nc(-c3ccc(F)cc3)c(CO)[nH]2)ccc1-n1cnc(C)c1 [Example 7, 5-(4-fluorophenyl)-2-{(E)-2-[3-methoxy-4-(4-methyl-1H-imidazol-1-yl)phenyl]vinyl}-(1H-imidazol-4-yl)methanol] | 67 nM |
| COc1cc(/C=C/c2nc(-c3ccccc3)c[nH]2)ccc1-n1cnc(C)c1 [Example 4, 2-{(E)-2-[3-methoxy-4-(4-methyl-1H-imidazol-1-yl)phenyl]vinyl}-4-phenyl-1H-imidazole] | 76 nM |
| COc1cc(/C=C/c2nc(-c3ccc(F)cc3)c[nH]2)ccc1-n1cnc(C)c1 [Example 1, 4-(4-fluorophenyl)-2-{(E)-2-[3-methoxy-4-(4-methyl-1H-imidazol-1-yl)phenyl]vinyl}-1H-imidazole] | 45 nM |
| COc1cc(/C=C/c2nc3n(n2)CCC3c2cc(F)c(F)c(F)c2)ccc1-n1cnc(C)c1 (single isomer, unassigned) [Example 113, (−)-2-{(E)-2-[3-methoxy-4-(4-methyl-1H-imidazol-1-yl)phenyl]vinyl}-7-(3,4,5-trifluorophenyl)-6,7-dihydro-5H-pyrrolo[1,2-b][1,2,4]triazole] | 32 nM |
| COc1cc(/C=C/c2nc3n(n2)CCO[C@H]3c2cc(F)c(F)c(F)c2)ccc1-n1cnc(C)c1 (single isomer, unassigned) [Example 77, (−)-2-{(E)-2-[3-methoxy-4-(4-methyl-1H-imidazol-1-yl)phenyl]vinyl}-8-(3,4,5-trifluorophenyl)-5,6-dihydro-8H-[1,2,4]triazolo[5,1-c][1,4]oxazine] | 83 nM |
| COc1cc(/C=C(\F)c2nc3n(n2)CCC[C@@H]3c2cc(F)c(F)c(F)c2)ccc1-n1cnc(C)c1 (single isomer, unassigned) [Example 58, (−)-2-{(Z)-1-fluoro-2-[3-methoxy-4-(4-methyl-1H-imidazol-1-yl)phenyl]vinyl}-8-(3,4,5-trifluorophenyl)-5,6,7,8-tetrahydro[1,2,4]triazolo[1,5-a]pyridine] | 39 nM |
| COc1cc(/C=C/c2nc3n(n2)CCCC3(O)c2cc(F)c(F)c(F)c2)ccc1-n1cnc(C)c1 (single isomer, unassigned) [Example 66, (−)-2-{(E)-2-[3-methoxy-4-(4-methyl-1H-imidazol-1-yl)phenyl]vinyl}-8-(3,4,5-trifluorophenyl)-5,6,7,8-tetrahydro[1,2,4]triazolo[1,5-a]pyridin-8-ol] | 20 nM |
| COc1cc(/C=C/c2nc(-c3ccc(F)cc3)c3n2CCNC3=O)ccc1-n1cnc(C)c1 [Example 10, 1-(4-fluorophenyl)-3-{(E)-2-[3-methoxy-4-(4-methyl-1H-imidazol-1-yl)phenyl]vinyl}-6,7-dihydro-5H-imidazo[1,5-a]pyrazin-8-one] | 130 nM |
| COC(=O)c1nc2n(c1-c1ccc(F)cc1)CCC/C2=C\c1ccc(-n2cnc(C)c2)c(OC)c1 [Example 21, methyl 3-(4-fluorophenyl)-8-{1-[3-methoxy-4-(4-methyl-1H-imidazol-1-yl)phenyl]-(E)-methylidene}-5,6,7,8-tetrahydroimidazo[1,2-a]pyridine-2-carboxylate] | 41 nM |
| COc1cc(/C=C/c2nc3n(n2)CCCC3c2cc(F)c(F)c(F)c2)cnc1-n1cnc(C)c1 (single isomer, unassigned) [Example 60, (−)-2-{(E)-2-[5-methoxy-6-(4-methyl-1H-imidazol-1-yl)pyridin-3-yl]vinyl}-8-(3,4,5-trifluorophenyl)-5,6,7,8-tetrahydro[1,2,4]triazolo[1,5-a]pyridine] | 40 nM |
| COc1cc(/C=C/c2nc3n(n2)CCOC3c2ccc(OC(F)(F)F)cc2)ccc1-n1cnc(C)c1 (single isomer, unassigned) [Example 135, (−)-2-{(E)-2-[3-methoxy-4-(4-methyl-1H-imidazol-1-yl)phenyl]vinyl}-8-(4-trifluoromethoxyphenyl)-5,6-dihydro-8H-[1,2,4]triazolo[5,1-c][1,4]oxazine] | 43 nM |
